Entries after “also recorded” stand apart in the source; their conditions may differ. Where two headings read alike, the source gives them in different places.

Here are results for 15 compounds from patent US20240293557A1, “PROTEOLYSIS TARGETING CHIMERAS AND METHODS OF USE THEREOF” (University of Maryland, Baltimore, priority 2021, published 2024).

One assay concerns the target CDK9 (Homo sapiens (Human), UniProt P50750). Nature of the assay: CDK9 activity assay (Nanosyn microfluidics mobility shift platform). Type of assay: biochemical. The procedure: CDK9 activity assays were performed by Nanosyn using a microfluidics mobility shift platform. In this assay, a fluorescently labeled substrate is incubated with the enzyme in the presence of test compounds. Samples are run through microfluidic chips, separating them based on differences in charge; this separates the more positive substrate from the more negative product. Enzyme activity is measured through comparison of the fluorescence from substrate and product peaks.

Another assay deals with MOLM14 cells. Description: alamarBlue cell viability assay of MOLM14 cells. The format is cell-based. As to conditions: Homo sapiens, MOLM-14. The procedure: In vitro evaluations. All 36 PROTACs are evaluated in the relevant kinase assays, and those with Ki values >10-fold weaker than the parent drug are not advanced further. […] Next, the IC50s of lead indirect MCL-1 PROTACs are determined by alamarBlue cell viability assays of four human AML cell lines.
Both MOLM14 and MV4;11 AML cell lines are relatively sensitive to VEN in vitro; harbor a FLT3-ITD mutation plus an MLL rearrangement, two relatively common poor-prognosis AML mutations (both cells lines also contain additional mutations); and are dependent on MCL-1 and BCL-2, and express relatively high levels of both. In addition, both MOLM14 and MV4;11 are sensitive to CDK9 inhibitors, PI3K/mTOR inhibitors and MEK inhibitors. […] Three repeats of each IC50 determination assay are performed for each compound against each of these four AML cell lines. Multiple compounds are tested against all four AML cell lines at once, using alamarBlue microplate assays previously described. Specifically, cell lines are treated with vehicle (negative control), PROTAC alone, parent (non-PROTAC) drug alone, VEN alone, the combination of parent drug+VEN, and the combination of PROTAC+VEN, each at multiple concentrations, and IC50s in the AML cell lines determined. […] Western blotting is conducted after treatment of cells with the active PROTACs to determine if dose-dependent reduction of MCL-1 and CDK9 or PI3K/mTOR or MEK proteins is observed.
Cell viability of MOLM14 cells was measured in presence of test compounds via alamarBlue assay. This is a colorimetric assay that uses resazurin, a reduction-oxidation indicator. After incubation, resazurin is added to the test wells. The reduced form of resazurin is resorufin, which is pink and highly fluorescent. This can be measured through absorbance or fluorescence and is proportional to the amount of living cells.

The subject of assay [1] is MOLM14 MCL1 OE cloned cell lines. Nature of the assay: 48 h alamarBlue cell viability assay of MOLM14 MCL1 OE cloned cell lines. The format is cell-based, human. As to conditions: MOLM14 MCL1 OE cloned cell lines vs control cell lines.
Description: Method: OLM14 AML cell were lentivirally transduced to overexpress MCL1. […] MOLM14 AML cells were transduced with lentiviral expression vector (LV) pWCC43 backbone containing EF1a—driven GFP and Ubiquitin (Ub)-driven MCL1, or control empty LV without MCL1, or control LV containing Luc in place of MCL1, and then single-cell subcloned.
For assay [2], the system named is Luc-labelled MOLM14 AML cells. Nature of the assay: Luc-labelled MOLM14 AML xenograft in NRG mice, venetoclax monotherapy or combinations. The format is in vivo, mouse. As to conditions: MOLM14 AML-bearing NRG mice; for AML burden (fold-change total body luminescence vs d0): two 5 d treatment cycles (d1-5, d21-25), imaging d7/d14/d21, vs vehicle. The procedure:
Next, these two compounds are tested at their MTD(s) in a 5 d schedule that utilized to evaluate VEN-based combinations against a luciferase (Luc)-labelled MOLM14 human AML cell line xenograft model. NRG mice are infused with Luc-labelled MOLM14 AML cells on day -10. After Xenogen quantification of baseline total body luminescence on d0, mice are placed into experimental groups balanced for AML burden. Each experiment to evaluate the two selected indirect MCL-1 PROTACs in vivo involves 10 groups of 5 MOLM14 AML-bearing mice treated with: (1) vehicle, (2-3) lead PROTACs, (4-5) corresponding parent drugs, (6) VEN, (7-8) corresponding parent drugs+VEN and (9-10) lead PROTACs+VEN. […] and VEN are administered at the same molar concentration as the novel PROTACs; additional control groups are needed if the MTDs of the two PROTACs differ. MOLM14 AML-bearing NRG mice are dosed daily PO on dl-5 and d21-25, assessed for AML burden by Xenogen imaging on d7, d14, and d21, and monitored until clinical signs dictate need for euthanasia (projected average 10 weeks). Primary response endpoints are AML response quantitation (fold-change in AML burden on d7/14/21 vs d0 for each mouse) via imaging. Comparisons of quantitative imaging results are confirmed by Kaplan-Meier survival analyses. In addition, the two selected PROTACs are similarly tested against a Luc-labelled MV4;11 cell line xenograft model. […]
Thus, the proposed sample size (5 mice/group) is expected to provide sufficient power for statistical analyses (at p<0.05 level; α=0.05, β=0.1), which is estimated with the standard deviation of AML burden over time monitored and the expected drug efficacy differences. […] AML burden is quantified using log transformed ratio of luminescence at d7/14/21 vs d0 for each mouse (fold-change); groups are compared using the appropriate parametric (ANOVA; t-test, etc) or non-parametric alternative as necessary (Wilcoxon rank sum, Kruskal-Wallis). […]
Two of the parent drug candidates are synthesized but the syntheses are published and short. […] The indirect MCL-1 PROTAC candidates are evaluated in the kinase assays as they are synthesized. […] On d0, after Xenogen quantification of baseline total body luminescence (AML burden), groups of 5 AML-bearing mice were treated on days 1-5, per a previously established MTD POx5d schedule, with VEN (150 mg/kg/d POx5), as monotherapy or co-administered with SOR (30 mg/kg/d POx5), ART (50 mg/kg/d POx5), and/or ASP (2001U/kg IP single dose). […] On d7, d14 and d21, each mouse was Xenogen imaged for total body luminescence, fold-change AML burden from d0 was calculated for each mouse, and mean (+/−SD) fold-change for each experimental group plotted. […]

Setting [3] is: MOLM14, 48 hr, read-out: Cell Viability (MOLM14 IC50-nM) 48 hr.
[4] abbreviates: MOLM14, 72 hr, read-out: Cell Viability (MOLM14 IC50-nM) 72 hr.

CDK9, sequence (P50750 whole entry): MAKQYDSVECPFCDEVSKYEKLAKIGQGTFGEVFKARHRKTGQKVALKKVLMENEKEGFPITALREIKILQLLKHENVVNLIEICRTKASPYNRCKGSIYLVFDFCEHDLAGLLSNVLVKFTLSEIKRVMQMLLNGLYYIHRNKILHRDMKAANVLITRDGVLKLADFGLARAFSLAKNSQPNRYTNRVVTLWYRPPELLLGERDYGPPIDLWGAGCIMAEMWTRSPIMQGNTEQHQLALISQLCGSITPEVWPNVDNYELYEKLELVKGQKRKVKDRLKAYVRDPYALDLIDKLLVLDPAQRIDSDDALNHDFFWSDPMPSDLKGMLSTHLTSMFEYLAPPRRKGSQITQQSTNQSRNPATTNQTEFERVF
CDK9, sequence (O60563 whole entry partner): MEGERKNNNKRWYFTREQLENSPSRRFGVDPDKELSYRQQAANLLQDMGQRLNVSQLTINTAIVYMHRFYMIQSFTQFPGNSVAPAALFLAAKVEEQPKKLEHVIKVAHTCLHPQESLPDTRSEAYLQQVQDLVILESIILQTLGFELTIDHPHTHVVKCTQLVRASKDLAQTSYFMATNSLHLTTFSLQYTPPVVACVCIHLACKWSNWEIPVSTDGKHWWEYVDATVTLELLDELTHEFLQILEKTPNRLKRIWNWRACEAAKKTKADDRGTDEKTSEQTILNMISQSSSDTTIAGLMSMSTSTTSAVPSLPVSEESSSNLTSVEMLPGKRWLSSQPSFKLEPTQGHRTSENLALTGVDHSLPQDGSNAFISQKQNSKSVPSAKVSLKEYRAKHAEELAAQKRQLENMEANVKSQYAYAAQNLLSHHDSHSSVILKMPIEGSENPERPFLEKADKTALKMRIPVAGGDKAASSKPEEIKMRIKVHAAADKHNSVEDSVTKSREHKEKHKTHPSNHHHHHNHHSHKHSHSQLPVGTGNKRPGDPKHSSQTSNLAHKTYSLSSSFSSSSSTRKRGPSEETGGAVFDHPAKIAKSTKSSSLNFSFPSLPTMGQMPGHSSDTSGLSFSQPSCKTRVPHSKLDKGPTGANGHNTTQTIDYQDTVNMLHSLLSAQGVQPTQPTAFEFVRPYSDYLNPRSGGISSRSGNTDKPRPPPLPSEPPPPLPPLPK

For the compound `CC(C)(C)OC(=O)CN1CCC(NC(=O)c2n[nH]cc2NC(=O)c2c(Cl)cccc2Cl)CC1` [AMC-3-086], the IC50 on CDK9 amounted to 0.011 µM; in the assay on MOLM14 cells (setting [3]) it was 1560 nM; with MOLM14 cells (setting [4]), 1590 nM.

As to `CC(C)(C)OC(=O)N1CCC(NC(=O)c2n[nH]cc2NC(=O)c2c(Cl)cccc2Cl)CC1` [AMC-3-095], the IC50 was 0.0113 µM at CDK9, 1680 nM in the assay on MOLM14 cells (setting [3]) and 2010 nM in the assay with MOLM14 cells (setting [4]).

On to `O=C(COc1cccc2c1C(=O)N(C1CCC(=O)NC1=O)C2=O)NCCNC(=O)CN1CCC(NC(=O)c2n[nH]cc2NC(=O)c2c(Cl)cccc2Cl)CC1` (centres unmarked) [AMC-3-097], for which, on CDK9, the IC50 is 0.00396 µM.

In the case of `O=C(NC1CCNCC1)c1n[nH]cc1NC(=O)c1c(Cl)cccc1Cl` [AMC-3-098, N-(4-Piperidinyl)-4-(2,6-dichlorobenzoylamino)-1H-pyrazole-3-carboxamide, reference compound], the IC50 stood at 178 nM in the assay on MOLM14 cells (setting [3]) and 460 nM in the assay on MOLM14 cells (setting [4]).

Turning to `O=C(COc1cccc2c1C(=O)N(C1CCC(=O)NC1=O)C2=O)NCCC(=O)N1CCC(NC(=O)c2n[nH]cc2NC(=O)c2c(Cl)cccc2Cl)CC1` (centres unmarked) [AMC-3-104], the IC50 at CDK9 was 0.00282 µM.

With `O=C1CCC(N2C(=O)c3cccc(OCC(=O)N4CCC(NC(=O)CN5CCC(NC(=O)c6n[nH]cc6NC(=O)c6c(Cl)cccc6Cl)CC5)CC4)c3C2=O)C(=O)N1` (centres unmarked) [AMC-3-106], the IC50 worked out at 0.00304 µM on CDK9, 6070 nM with MOLM14 cells (setting [3]) and 8170 nM in the assay on MOLM14 cells (setting [4]).

Consider `O=C(COc1cccc2c1C(=O)N(C1CCC(=O)NC1=O)C2=O)NCCOCCNC(=O)CN1CCC(NC(=O)c2n[nH]cc2NC(=O)c2c(Cl)cccc2Cl)CC1` (centres unmarked) [CG-3-066], for which the IC50 came to 0.00332 µM at CDK9, 1970 nM with MOLM14 cells (setting [3]) and 1690 nM with MOLM14 cells (setting [4]).

On to `O=C(COc1cccc2c1C(=O)N(C1CCC(=O)NC1=O)C2=O)NCCOCCOCCNC(=O)CN1CCC(NC(=O)c2n[nH]cc2NC(=O)c2c(Cl)cccc2Cl)CC1` (centres unmarked) [CG-3-067], for which the IC50 on CDK9 is 0.00389 µM; in the assay with MOLM14 cells (setting [3]), 4320 nM; in the assay with MOLM14 cells (setting [4]), 7150 nM.

For the compound `O=C(COc1cccc2c1C(=O)N(C1CCC(=O)NC1=O)C2=O)NCCCCCCC(=O)N1CCC(NC(=O)c2n[nH]cc2NC(=O)c2c(Cl)cccc2Cl)CC1` (centres unmarked) [CG-3-071], the IC50 amounted to 0.00285 µM at CDK9, 1710 nM with MOLM14 cells (setting [3]) and 1910 nM in the assay with MOLM14 cells (setting [4]).

For the compound `Cc1c(-c2c(-c3ccc(F)o3)sc3ncnc(O[C@H](Cc4ccccc4OCc4ccnn4CC(F)(F)F)C(=O)O)c23)ccc(OCCN2CCN(C)CC2)c1Cl` [S63845], in assay [1], the “Sensitivity of MCL-1 overexpressing MOLM14 clones compared to control cell lines” value is “reduced sensitivity”.

As for `O=C1CCC(N2C(=O)c3cccc(OCC(=O)N4CCC(C(=O)N5CCC(NC(=O)c6n[nH]cc6NC(=O)c6c(Cl)cccc6Cl)CC5)CC4)c3C2=O)C(=O)N1` (centres unmarked) [SF-8-140], the IC50 is 0.00166 µM at CDK9, 3000 nM with MOLM14 cells (setting [3]) and 1820 nM in the assay on MOLM14 cells (setting [4]).

As for `O=C(CNC(=O)COc1cccc2c1C(=O)N(C1CCC(=O)NC1=O)C2=O)NCCCCCCC(=O)N1CCC(NC(=O)c2n[nH]cc2NC(=O)c2c(Cl)cccc2Cl)CC1` (centres unmarked) [SF-8-141], on CDK9, the IC50 amounted to 0.00449 µM.

`CNC(=O)c1cc(Oc2ccc(NC(=O)Nc3ccc(Cl)c(C(F)(F)F)c3)cc2)ccn1` [SOR, Sorafenib]: in assay [2], the “AML burden (fold-change total body luminescence vs d0)” value was “reduced AML burden only moderately; also recorded: significant difference in AML burden only at d7 and d14”.

On to `CC1(C)CCC(CN2CCN(c3ccc(C(=O)NS(=O)(=O)c4ccc(NCC5CCOCC5)c([N+](=O)[O-])c4)c(Oc4cnc5[nH]ccc5c4)c3)CC2)=C(c2ccc(Cl)cc2)C1` [VEN, venetoclax], for which the “AML burden (fold-change total body luminescence vs d0)” value in assay [2] is listed as “no detectable effect; also recorded: minimal activity”. Further, the Kaplan-Meier survival result in assay [2] (two 5 d treatment cycles, survival to d84, vs vehicle or monotherapy) was “no detectable effect”. Further, in assay [1], the “Sensitivity of MCL-1 overexpressing MOLM14 clones compared to control cell lines” value was “more resistant”.

For PEGylated L-asparaginase, the “AML burden (fold-change total body luminescence vs d0)” value in assay [2] was “minimal activity”.
